Assay results reported in PMC3834219 (Plant molecular biology, 2013).

Biological target: T1, GmPP2C1 (Glycine max, UniProt K7LYY2)
T1 sequence (K7LYY2 1-536): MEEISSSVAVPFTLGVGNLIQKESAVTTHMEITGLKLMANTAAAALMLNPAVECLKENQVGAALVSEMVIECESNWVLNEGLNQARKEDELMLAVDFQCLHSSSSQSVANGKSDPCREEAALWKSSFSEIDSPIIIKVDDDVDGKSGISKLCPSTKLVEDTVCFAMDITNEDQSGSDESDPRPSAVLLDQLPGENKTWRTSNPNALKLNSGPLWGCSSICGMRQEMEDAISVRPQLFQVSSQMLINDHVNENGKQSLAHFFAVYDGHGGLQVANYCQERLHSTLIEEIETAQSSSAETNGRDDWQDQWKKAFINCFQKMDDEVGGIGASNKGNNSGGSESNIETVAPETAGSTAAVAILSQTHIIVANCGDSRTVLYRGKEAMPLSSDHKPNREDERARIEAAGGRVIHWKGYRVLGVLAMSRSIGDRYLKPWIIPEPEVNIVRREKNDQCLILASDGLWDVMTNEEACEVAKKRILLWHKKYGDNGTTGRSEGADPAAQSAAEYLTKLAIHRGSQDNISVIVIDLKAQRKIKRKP
Assay: pNPP hydrolysis at […] nm
Assay type: biochemical
Conditions: 1 μM His-GmPP2C1, 50 mM pNPP, pH 7.5, 25 mM Mg(OAc)2, 2 mM MnCl2

In the case of `O=[N+]([O-])c1ccc(OP(=O)(O)O)cc1` [p-nitrophenyl phosphate], the “pNPP hydrolysis at 405 nm” value is reported as “GmPP2C1 phosphatase activity was measured using the colorimetric substrate p-nitrophenyl phosphate (pNPP, Sigma)”.
